Test [1] deals with elastase. As to the kind of experiment: fMLP induced elastase release from human neutrophils. The test is classed as cell-based. The settings on record: compound alone at 300 nM. On the procedure:
Blood was procured from a local blood bank. Neutrophils were obtained using the dextran sedimentation method. Cells were plated at 100,000 cells per well in a 96-well plate, treated with fMLP (1 μM) and N-Succinyl-Ala-Ala-Ala-p-nitroanalide (1 μM) (Sigma) and incubated for 2 h. Intensity of digested substrate after incubation was determined by measuring the absorbance at 405 nm on a Fluostar Omega (BMG Labtech, NC, USA).

For test [2], the system named is MMP-9. In words: MMP-9 release from PMA-induced THP-1 cells (gelatin zymography). The test is classed as cell-based, human. The following applies: compound alone at 300 nM. The protocol: Gelatinase activity of MMP-9 was determined by zymography. Proteins in supernatant (after incubation of THP-1 cells with 50 ng PMA for 24 h) were separated on gels containing 0.1% gelatin (Sigma, USA). Gels were re-natured by incubation in 2.5% Triton X-100 for 30 min, incubated overnight in substrate buffer (50 mMTris-HCl, pH 7.5) containing 10 mM CaCl2 and 0.05% ZnCl2 at 37° C. and stained with Coomassie brilliant blue (0.5%). […] Molecular weight markers (Fermentas, Lithuania) were run with each gel. Band intensity was calculated using ImageJ 1.42 (NIH, USA).

Test [3] relates to pAkt (S473). As to the kind of experiment: phospho-Akt (S473) in differentiated U937 cells stimulated with cigarette smoke extract (SDS-PAGE). The test is classed as cell-based. The following applies: Homo sapiens, U-937; compound alone; differentiated U937, CSE; read-out: IC50 of inhibition of Akt phosphorylation. On the procedure:
U-937 monocytes were differentiated into macrophages by incubation with 50 ng/ml PMA for 48 h. Cells were trypsinized and plated at a density of 100,000 per well and stimulated with CSE for 2 h in starvation media. Lysates were made using RIPA buffer and run by SDS-PAGE, transferred to PVDF membrane and probed with phospho-Akt (S473) antibody (Cell signaling, USA) followed by anti-rabbit IgG (Cell signaling, USA). Band intensity was calculated using ImageJ 1.42 (NIH, USA).

The subject of test [4] is macrophage and neutrophil infiltration. As to the kind of experiment: Chronic cigarette smoke induced cell infiltration in male Balb/c mice. It counts as in vivo. The settings on record: alone at 1 mg/kg oral; chronic CS, mouse. On the procedure:
Animals were acclimatized for seven days prior to the start of the experiment. Animals were randomly distributed to various groups based on their body weights. Mice were exposed to the mainstream smoke of 4 cigarettes from day 1 to day 11. Exposure to the smoke of each cigarette lasted for […] (each cigarette was completely burned in the first two minutes, followed by an air flow with animal ventilator) and were exposed for the next 20 min with fresh room air. After every second cigarette an additional break of 20 min with exposure to fresh room air was conducted. Control animals were exposed to the room air chamber. Test compound was administered by the oral route from day 6 to day 11 before 30 mins whole body smoke exposure. On day 12, 24 hours after the last cigarette smoke (CS) exposure animals were exsanguinated under anaesthesia, and the trachea was cannulated and the lungs were lavaged with 0.5 ml aliquots of heparinised PBS (1 unit/nil) four times through tracheal cannula (total volume 2 ml). Bronchioalveolar (BAL) collected was stored at 2-8° C. until assayed for total cell and differential leukocyte count. BAL fluid was centrifuged (500×g for 10 min) and the resulting cell pellet was resuspended in 0.5 ml of heparinised saline. The total number of white blood cells was determined in BAL fluid and blood using a blood cell counter and adjusted to 1×10^6 cell/ml. Differential cell count was calculated manually Forty microliters of the cell suspension was centrifuged using cytospin 3 to prepare a cell smear. The cell smear was stained with a blood staining solution for differentiation and microscopically observed by identifying each cell according to its morphological characteristics. The number of each cell type among 300 white blood cells in the cell smear was determined and expressed as a percentage, and the number of neutrophils and macrophages in each BAL fluid were calculated.

Test [5] has the same test system. In words: Acute cigarette smoke induced cell infiltration in male Balb/c mice. It counts as in vivo. The settings on record: acute CS, mouse; for ED50: oral. The protocol: Animals were acclimatized for seven days prior to the start of the experiment. Animals were randomly distributed to various groups based on their body weights. On day 1, mice were administered by test compound or vehicle by the oral route and after 30 mins test compound administration animals were placed in a whole body exposure box. The mice were exposed to the mainstream smoke of 6 cigarettes from day 1 to day 4. Exposure to the smoke of each cigarette lasted for 10 min (cigarettes were completely burned in the first two minutes and followed by an air flow with animal ventilator) followed by exposure for the next 20 min with fresh room air. After every second cigarette an additional break of 20 min with exposure to fresh room air was conducted. Control animals were exposed to the room air chamber. From day 1 to day 4 animals were administered test compound by the oral route. On day 5, 24 hours after the last cigarette smoke (CS) exposure. animals were exsanguinated under anaesthesia, and the trachea was cannulated and the lungs were lavaged with 0.5 ml aliquots of heparinised PBS (1 unit/ml) four times through a tracheal cannula (total volume 2 ml). Bronchioalveolar (BAL) collected was stored at 2-8° C. until assayed for total cell and differential leukocyte count. BAL fluid was centrifuged (500×g for 10 min) and the resulting cell pellet was resuspended in 0.5 ml of heparinised saline. The total number of white blood cells was determined in BAL fluid and blood using a blood cell counter and adjusted to 1×10^6 cell/ml. Differential cell count was calculated manually. Forty microliters of the cell suspension was centrifuged using cytospin 3 to prepare a cell smear. The cell smear was stained with a blood staining solution for differentiation and microscopically observed by identifying each cell according to its morphological characteristics. The number of each cell type among 300 white blood cells in the cell smear were determined and expressed as a percentage, and the number of neutrophils and macrophages in each BAL fluid were calculated.
The procedure for acute cigarette smoke induced cell infiltration in male Balb/c mice described in Example 1 was performed with Compound A1 and roflumilast

The subject of test [6] is neutrophil infiltration. In words: Lipopolysaccharide induced pulmonary neutrophilia in female Wistar rats. The test is classed as in vivo. The protocol: After the quarantine period, fasted animals were randomized and divided into groups depending on their body weights. Test compound was prepared as a suspension in a vehicle consisting of 0.5% methylcellulose in which Tween 80 was used as a suspending agent. Compounds or vehicle were administered by oral gavage in a volume of 10 mL/kg. Animals were anaesthetized with ketamine and LPS solution was administered intratracheally 30 minutes after compound administration at a dose of 1 mg/kg. Six hours after LPS instillation, animals were exsanguinated under anaesthesia, and the trachea was cannulated, and lungs were lavaged with 5-ml aliquots of heparinised PBS (1 unit/ml) four times through the tracheal cannula (total volume 20 ml). Bronchioalveolar (BAL) fluid was stored at 2-8° C. until assayed for total cell and differential leukocyte count. BAL fluid was centrifuged (500×g for 10 min) and the resulting cell pellet was resuspended in 0.5 ml of heparinised saline. The total numbers of white blood cells were determined in BAL fluid or blood using a cell counter and were adjusted to 1×10^6 cell/ml. Differential cell count was calculated manually. One hundred microliters of the cell suspension was centrifuged using cytospin 3 to prepare a cell smear. The cell smear was stained with a blood staining solution for differentiation and slides were microscopically observed to identify eosinophils according to their morphological characteristics. The number of each cell type among 300 white blood cells in the cell smear was determined and expressed as a percentage of total cells. The number of eosinophil in BALF was calculated.
The procedure for LPS induced pulmonary neutrophilia in female Wistar rats as described in Example 1 was performed with compound A1 and roflumilast.

Test [7] has as its system TNFα. In words: LPS induced TNFα in PBMC. The test is classed as cell-based. The settings on record: 1000 nM alone, LPS 1 μg/ml, 24 h. On the procedure:
PBMC (peripheral blood mononuclear cells) from whole blood were isolated by density gradient using Histopaque and incubated with the desired concentration of inhibitor for 15 minutes. LPS (1 μg/ml) was added and then incubated for 24 hours. The supernatant was collected and TNFα estimated using an eBioscience TNFα ELISA kit.
PBMC from whole blood were isolated by density gradient using Histopaque and incubated with the desired concentration of inhibitor for 15 minutes. LPS (1 μg/m1) was added and then incubated for 24 hours. The supernatant was collected and TNFα estimated using an eBioscience TNFα ELISA kit.

Test [8] deals with TNFα. In words: LPS induced TNFα in MH-S (mouse alveolar macrophage) cells. The test is classed as cell-based. The following applies: 130 nM alone. The protocol:
MH-S represents a mouse alveolar macrophage cell line that secretes copious amounts of TNFα upon induction by LPS. Cells were plated at 150,000 cells per well. 10 nM of Compound A1 (final concentration) was added 15 minutes prior to the addition of roflumilast. LPS (1 μg/ml) was added and then incubated for 4 hours. The supernatant was collected after 20 hours and TNFα was estimated using an ELISA kit.

Setting [9] is: 3 mg/kg oral, dose-response study.
[10] abbreviates: combination study, alone at 3 mg/kg.

The structures appear in SMILES notation. Read-outs that look alike come from different tables or passages of the source.

The record followed here is patent US10413532B2, “Pharmaceutical compositions containing a PDE4 inhibitor and a PI3 delta or dual PI3 delta-gamma kinase inhibitor” (Rhizen Pharmaceuticals SA, priority 2012, dated 2019).

As for `Cc1ccccc1-n1c(Cn2cnc3c(N)ncnc32)nc2cccc(C)c2c1=O` [Compound B, 2-((6-amino-9H-purin-9-yl)methyl)-5-methyl-3-o-tolylquinazolin-4(3H)-one], the “reduction of elastase release” value in test [1] turned out to be 10%. Moreover, the “effect on MMP-9 release” value in test [2] is listed as “no effect”. Further, the IC50 in test [3] amounted to 0.78 µM.
As for `C[C@H](Nc1ncnc2[nH]cnc12)c1oc2ccc(F)cc2c(=O)c1-c1cccc(F)c1` [Compound C, (S)-2-(1-(9H-purin-6-ylamino)ethyl)-6-fluoro-3-(3-fluorophenyl)-4H-chromen-4-one], the “inhibition of macrophage infiltration” value is −13.30% in test [4] and 30.01% in test [5] (setting [10]). The “inhibition of neutrophil infiltration” value in test [4] was 4.08%; in test [5] (setting [10]), 41.47%; in test [6] (combination study, alone at 1 mg/kg, rat), 36.56%. Besides, the “percent inhibition of macrophage infiltration” value in test [5] (1 mg/kg oral) is reported as 34.84%; in test [5] (setting [9]) it was 42.09%; in test [5] (10 mg/kg oral), 61.77%. Also, the “percent inhibition of neutrophil infiltration” value in test [5] (1 mg/kg oral) came to 29.06%; in test [5] (setting [9]) it was 62.38%; in test [5] (10 mg/kg oral), 74.25%; in test [6] (0.1 mg/kg oral, rat BAL fluid 6 h after LPS) it was 14.15%; in test [6] (1 mg/kg oral, dose-response study, rat) it was 57.76%; in test [6] (3 mg/kg oral, rat) it was 56.93%. Also, the “percent inhibition of neutrophil infiltration” value in test [6] (10 mg/kg oral, rat) stood at 81.55%. For the same compound, the ED50 is 4.4 mg/kg in test [5] (Macrophage, read-out: 50% inhibition (ED50) dose, macrophage infiltration); 2.1 mg/kg in test [5] (Neutrophil, read-out: dose of 50% inhibition (ED50) of neutrophil infiltration); 1 mg/kg in test [6] (Neutrophil, oral, rat LPS pulmonary neutrophilia, read-out: 50% inhibition (ED50) dose, neutrophil infiltration). The “decrease of TNFα secretion” value in test [7] is 20%.
With `CCOc1cc([C@@H](CS(C)(=O)=O)N2C(=O)c3cccc(NC(C)=O)c3C2=O)ccc1OC` [aprelimilast, reference compound], the “decrease in TNFα secretion” value in test [8] is approximately 10%.

As a reminder, the IC50 is the concentration that inhibits the measured activity by half.
